We go through eleven compounds from US5504104A, “Tricyclic pyrone derivatives as protease inhibitors and antiviral agents” (Warner-Lambert Company, priority 1993, dated 1996).

The target in one test is T1, HIV-1 Protease (Human immunodeficiency virus type 1 group M subtype B, UniProt P04585).
T1 construct: HIV-1 Protease: The enzyme is obtained from Bachem Bioscience Inc; purchased Bachem Bioscience Inc
Put plainly: HIV Protease Inhibition Assay (HPLC of undecapeptide substrate hydrolysis). In kind it is biochemical. Conditions: 40 μM substrate, 37° C., 5 minutes, pH 4.7, 2% DMSO; read-out: 50% INHIBITION CONCENTRATION
The procedure: The biological activity of the subject compounds was determined in an HIV Protease Inhibition Assay.
DTT Buffer: 1.0 mM dithiothreitol (DTT) was prepared fresh daily in 0.1% polyethylene glycol (mw 8000) 80 mM NaOAc, 160 mM NaCl, 1.0 mM EDTA, and brought to pH 4.7 with HCl.
HIV-1 Protease: The enzyme is obtained from Bachem Bioscience Inc. The undiluted enzyme is thawed from -80° C. and diluted 50-fold with DTT buffer. The solution is always kept at 0° C. on ice water and used in the experiment within 20 minutes after thawing.
Ensyme Substrates: Substrate III from Bachem Bioscience Inc. is the undecapeptide H-His-Lys-Ala-Arg-Val-Leu-p-Nitrophenylalanine-Glu-Ala-Norleucine-Ser-NH2 (>97% purity). A 200 μM stock solution in DTT buffer is prepared and stored on ice. Substrate solution is prepared fresh daily.
Test Compound: 10 mM inhibitor (I) in dimethyl sulfoxide (DMSO) is diluted to 200 μM with DTT buffer. From the 200 μM stock solution is made a 10 μM stock solution with 2% DMSO in DTT buffer. The two inhibitor solutions are used to make final I!=100, 50, 20, 10, 5, 2, 1, 0.5 and 0 μM with 2% DMSO in DTT buffer in each reaction well (total inhibitor volume of 50 μl).
To each reaction well is added 20 μl of substrate (final concentration of 40 μM), 50 μl of inhibitor (at a concentration such that final dilution will produce the test concentration) and 20 μl of DTT buffer. The reaction plate (96 wells) is incubated at 37° C. for at least 5 minutes.
10 μl of the diluted protease is added to the reaction well while the reaction plate is shaking. Once shaken for 10 seconds, the plate is returned to the heating block at 37° C. (final reaction volume 100 μl.)
The reaction is incubated for 5 minutes at 37° C. The reaction is stopped by placing the reaction plate on the shaker and adding 20 μl of 10% trifluoroacetic acid (TFA) and shaking for 10 seconds. The amount of proteolysis is then determined by separation of noncleaved substrate and two cleaved products with reverse-phase HPLC, while measuring absorbance at 220 nm to determine the relative peak areas of the three components. The relative peak areas are used to calculate % conversion to product as a function of inhibitor concentration. The data is plotted as % Control (the ratio of % conversion is the presence and absence of inhibitor×100) versus inhibitor concentration and fit with the equation Y=100/1+(X/IC50)^A, where IC50 is the inhibitor concentration at 50% inhibition and A is the slope of the inhibition curve.

In another test the test system is HIV. Conditions: cell-free and cell-mediated; literature; cited from earlier work.

Consider `O=c1oc2c(c(O)c1SCc1ccccc1)Cc1ccccc1-2` [Example 1, 4-Hydroxy-3-(phenylmethyl)thio!-indeno 1,2-b!pyran-2(5H)-one], for which the IC50 on HIV-1 Protease turned out to be 1.3 µM.
`O=c1oc2c(c(O)c1SCc1ccccc1)CSc1ccccc1-2` [Example 25, 4-Hydroxy-3-(phenylmethyl)thio!-2H,5H-1!bensothiopyrano 4,3-b!pyran-2-one]: at HIV-1 Protease, the IC50 came out at 1.3 µM.
Same read-out and setting: the figure for `Cc1cc(C)c2c(c1)-c1oc(=O)c(SCc3ccccc3)c(O)c1CC2` [Example 6, 5,6-Dihydro-4-hydroxy-7,9-dimethyl-3-(phenylmethyl)thio!-2H-naphtho 1,2-b! pyran-2-one] is 2 µM.
Turning to `O=c1oc2c(c(O)c1SCc1ccccc1)CCc1ccccc1-2` [Example 4, 5,6-Dihydro-4-hydroxy-3-(phenylmethyl)thio!-2H-naphtho 1,2-b!pyran-2-one], at HIV-1 Protease, the IC50 stood at 1.4 µM.
`O=c1oc2c(c(O)c1SCCc1ccccc1)Cc1ccccc1-2` [Example 16, 4-Hydroxy-3-(2-phenylethyl)thio!indeno 1,2-b!pyran-2(5H)-one]: the IC50 at HIV-1 Protease is 3.5 µM.
On to `O=c1oc2c(c(O)c1SCc1ccccc1)CCc1cc(O)ccc1-2` [Example 9, 5,6-Dihydro-4,8-dihydroxy-3-(phenylmethyl)thio! -2H-naphtho 1,2-b !pyran-2-one], for which the IC50 on HIV-1 Protease was 2.5 µM.
Still for that read-out and setting: the figure for `O=c1oc2c(c(O)c1SCc1ccccc1)COc1ccccc1-2` [Example 14, 4-Hydroxy-3-(phenylmethyl)thio!-2H,5H-pyrano 3,2-c! 1!bensopyran-2-one] is 4 µM; for `O=C(O)COc1ccc2c(c1)-c1oc(=O)c(SCc3ccccc3)c(O)c1C2` [Example 29, 2,5-Dihydro-4-hydroxy-2-oxo-3-(phenylmethyl)thio!indeno 1,2-b!pyran-8 !oxy!-acetic acid] it is 1.4 µM.
Still for that read-out and setting: the same measure for `O=c1oc2c(c(O)c1SCc1ccccc1)Cc1ccc(OCc3ccccc3)cc1-2` [Example 11, 4-Hydroxy-8-(phenylmethoxy)-3-(phenylmethyl)thio!indeno 1,2-b!pyran-2(5H)-one]: 2.2 µM.
Take `CC(=O)CC(c1ccccc1)c1c(O)c2ccccc2oc1=O` (stereo not drawn) [Warfarin, 3-(α-acetonylbenzyl)-4-hydroxycoumarin]: the “inhibiting HIV infection” value in the test with HIV is “inhibiting cell-free and cell-mediated HIV infection”.
For the compound `O=c1oc2c(c(O)c1SCc1ccccc1)Cc1ccc(O)cc1-2` [Example 3, 4,8-Dihydroxy-3-(phenylmethyl)thio!-indeno 1,2-b!pyran-2(5H)-one], the IC50 at HIV-1 Protease was found to be 0.7 µM.
